This note sets out measurements from patent publication US11958796B2, “Hydrophilic and particularly water soluble DBOV-derivatives” (Max-Planck-Gesellschaft zur Förderung der Wissenschaften …, priority 2018, dated 2024).

One data set is described as follows: solubility in water. The data set is classed as physicochemical. The following applies: room temperature. The procedure: In accordance with the present invention, the solubility of the compound having the general formula (1) in water at 23° C. is measured as follows: 1.0 mg sample is weighed into an Erlenmeyer flask and is then mixed homogeneously with 4 ml of water with a spatula at 23° C. The remaining substance on the spatula is stripped off with a magnetic stirrer bar, which is then added to the Erlenmeyer flask. While stirring with a magnetic stirrer, water is added dropwise with a burette until the solution in the Erlenmeyer flask becomes clear at 23° C. After that, the solubility of compound in water is calculated by calculating the ratio of weighed compound divided by the volume of added water and then by recalculating this ratio to 1 l of water.

In data set [1] the test system is living cells. As to the kind of experiment: cytotoxicity test in living cells. The format is cell-based. The following applies: concentration of 1 μM. As to the method:
(§1) More specifically, the cytotoxicity of DBOV-Mes-OTEG was tested in living cells. […] Moreover, the uptake of DBOV-Mes-OTEG into living cells was investigated by imaging 21 hours with low laser intensity at the spinning disk confocal microscopy (Visitron).

The subject of data set [2] is living cells. Description: uptake into living cells, spinning disk confocal microscopy. The data set is classed as cell-based. As to the method: as §1
For another data set, the system named is fixed cell samples. Description: blinking-mode imaging of fixed samples in PBS. The following applies: fixed samples in PBS without special imaging buffer; continuous exposure, laser intensity 10 kW/cm^2 for 90 min. The text has this: After the aforementioned live cell imaging, the samples were fixed and imaged in phosphate-buffered saline (PBS) without special imaging buffer.

With “3,4,5-tris(2,5,8,11-tetraoxatridecan-13-yloxy)phenyl substituted 6,14-dimesityldibenzo[hi,st]ovalene [DBOV-Mes-OTEG]”, in the data set “solubility in water”, the solubility in water was found to be 100 µg/mL. Moreover, the cytotoxicity result with living cells [1] was “does not show any significant toxicity”. Moreover, the intracellular location entry with living cells [2] (after 21 hours incubation) was “in the nucleus and nuclear membrane”. Besides, in the data set with living cells [2] (beginning of the incubation), the “uptake / intracellular location” value is given as “taken into the cytoplasm”. In addition, in the data set on fixed cell samples, the “stability of blinking signals (photostability)” value is on record as “no significant decrease of blinking signals”.
